Results taken from US12187759B2, “TLR7 agonists” (Primmune Therapeutics, Inc., priority 2019, dated 2025).

Tests used:
[1] = target: T1, human TLR7 (Homo sapiens, UniProt Q9NYK1); assay: TLR7 reporter cell assay (HEK293 cells stably expressing human TLR7 with NF-κB-driven SEAP reporter); format: cell-based; details: 15-24 hours; for Emax at 500 µM: HEK293, 500 μM compound, SEAP activity (OD 650 nm) relative to 28.5 μM resiquimod, read-out: Response at 500 μM Compound as a Percent of Resiquimod Response; for EC50: fit of SEAP dose response, ymax from 28.5 μM resiquimod
T1 construct: host or cells: HEK293
T1 sequence (Q9NYK1 27-1049): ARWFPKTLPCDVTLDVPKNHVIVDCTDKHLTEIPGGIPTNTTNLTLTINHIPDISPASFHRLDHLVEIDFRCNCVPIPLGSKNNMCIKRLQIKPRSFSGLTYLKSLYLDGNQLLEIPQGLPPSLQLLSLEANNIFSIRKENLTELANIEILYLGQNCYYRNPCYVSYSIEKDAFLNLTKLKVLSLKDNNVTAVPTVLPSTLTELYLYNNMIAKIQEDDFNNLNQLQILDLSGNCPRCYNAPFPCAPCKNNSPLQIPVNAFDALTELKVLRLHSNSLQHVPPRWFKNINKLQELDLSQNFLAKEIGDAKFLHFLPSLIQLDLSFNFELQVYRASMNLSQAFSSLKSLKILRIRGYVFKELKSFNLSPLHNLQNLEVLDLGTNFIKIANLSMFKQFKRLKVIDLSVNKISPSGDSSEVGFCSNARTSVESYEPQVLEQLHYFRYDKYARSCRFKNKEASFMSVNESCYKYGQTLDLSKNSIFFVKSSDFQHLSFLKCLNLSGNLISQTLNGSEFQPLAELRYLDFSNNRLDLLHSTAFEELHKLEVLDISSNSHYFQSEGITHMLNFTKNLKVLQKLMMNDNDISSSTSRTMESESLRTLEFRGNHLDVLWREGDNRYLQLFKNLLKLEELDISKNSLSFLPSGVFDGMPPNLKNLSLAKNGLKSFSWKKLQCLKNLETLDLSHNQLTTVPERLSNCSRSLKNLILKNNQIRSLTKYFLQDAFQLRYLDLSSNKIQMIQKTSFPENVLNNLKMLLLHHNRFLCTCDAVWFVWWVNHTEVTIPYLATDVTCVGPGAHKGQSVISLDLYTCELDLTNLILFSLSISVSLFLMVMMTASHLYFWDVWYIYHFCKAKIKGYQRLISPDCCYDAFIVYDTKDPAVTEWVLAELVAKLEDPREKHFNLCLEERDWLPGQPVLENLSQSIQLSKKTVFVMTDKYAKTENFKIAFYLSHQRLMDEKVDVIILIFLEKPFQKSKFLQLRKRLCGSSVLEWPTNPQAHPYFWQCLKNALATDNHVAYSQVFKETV
Text: The engagement of TLRs by cognate ligands triggers downstream signaling cascades, leading to the activation of NF-κB and other transcription factors which initiate various immunomodulatory effects. The human embryonic kidney cell line, HEK293, is essentially non-responsive to TLR agonists, but ectopic expression of TLRs in these cells allows cognate agonists to activate endogenous NF-κB. Accordingly, the HEK293-TLR-NF-κB inducible reporter system is used to assay TLR agonists.
HEK293 cell lines stably expressing human TLR7 or TLR8 together with an NF-κB-driven-secreted alkaline phosphatase (SEAP) reporter were invented at InvivoGen (San Diego, California, USA) and used to assess compounds of the present invention for TLR7 and TLR8 agonist activities. Cells were seeded at 2-5×10^4 cells/well in 96 well plates (200 μl/well) and treated with various concentrations of compound (10 μl) for 15-24 hours. SEAP activity was determined by measuring OD at 650 nm; the media used to culture the cell lines contains the reagents required for SEAP detection. The EC50 values in Table 1 are calculated from fitting the dose response of measured SEAP activity for each compound to the following equation: Y=ymax*c^nh/(EC50^nh+c^nh)+blank where Y is the experimentally measured OD650 at concentration c of test article, blank is the observed OD650 in the absence of TLR7 agonist, ymax is the difference between the measured OD650 in the presence of 28.5 μM resiquimod and the blank and values of EC50 and nh are determined by nonlinear least squares analysis. Resiquimod is a known TLR7 and TLR8 agonist.
Compound A is 5-amino-3-((2R,3R,5S)-3-hydroxy-5-((S)-1-hydroxypropyl)tetrahydrofuran-2-yl)thiazolo[4,5-d]pyrimidine-2,7(3H,6H)-dione)

[2] = test system: hPBMCs (Human Peripheral Blood Mononuclear Cells); assay: Induction of interferon-α in hPBMCs in vitro; format: cell-based; details: Homo sapiens, PBMC; for Emax: 24 h, peak IFNα2a as percentage of peak response of standard 2-Amino-7-(cyclopropylmethyl)-9-B-D-xylofuranosyl-7,9-dihydro-1H-purine-6,8-dione, averaged across donors, read-out: IFNrmax, Relative Maximal IFNα2a Production (%); for minimal effective concentration: minimal effective concentration for interferon-α production (generally at least 80 pg/ml above baseline), geometric mean across at least three donors, 24 hours, read-out: Weighted MEC
Description: Treatment of hPBMCs with a TLR7 agonist typically induces some production of interferon-α as well as lesser amounts of a variety of other cytokines and chemokines. A typical experiment uses hPBMCs isolated from a healthy donor and placed in replicate cell culture wells; typically 1.0-7.5×10^6 cells are placed in each well. A test compound is added and the cells are cultured for 24 hours at 37° C. in a humidified atmosphere containing 5% CO2 post-addition; untreated controls are included. Secreted interferon-α production is measured using an a multisubtype interferon-α ELISA kit like those from PBL Assay Sciences or specifically as IFNα2a as part of a panel of cytokines and chemokines using luminex methodologies.
The minimal effective concentration (MEC) is the minimum concentration in a dose response curve where a significant increase in interferon-α production (generally at least 80 pg/ml) is observed above baseline. MEC values for each compound are determined for at least three donors. The weighted MEC for each compound is the geometric mean of all individual MECs across all donors. Concentrations tested typically consist of a two-fold dilution series starting at 100 μM. In the calculation of weighted MEC, any individual MEC value greater the highest concentration tested is arbitrarily set to two times the highest concentration tested unless all MECs for a compound exceed this value. The maximal amount of IFNα2a for each donor is determined from dose dependence for each compound.
In order to normalize for variation in each hPBMC preparation, these values are first transformed by expressing as a percentage of peak response measured with a standard (2-Amino-7-(cyclopropylmethyl)-9-B-D-xylofuranosyl-7,9-dihydro-1H-purine-6,8-dione) and then averaging the results across all donors, this average referred to as IFNrmax.
IFNmax is the maximum amount of IFN observed at any concentration across the evaluated concentration range. MEC and IFNmax values for three select compound are shown for three donors (Table 3). The range of tested concentrations were 0.625-5 μM for Imiquimod, 3.125-100 μM for both Compound A and Compound 1, 12.5-100 μM for Compound 2.

Emax at 500 µM [1] | EC50 [1] | Compound | Emax [2] | minimal effective concentration [2]
< 5% |  | C#CCn1c(=O)n([C@@H]2O[C@H]([C@@H](O)CO)C[C@H]2O)c2nc(N)[nH]c(=O)c21 [Compound 14, 2-Amino-9-((2R,3R,5S)-5-((S)-1,2-dihydroxyethyl)-3-hydroxytetrahydrofuran-2-yl)-7-(prop-2-yn-1-yl)-7,9-dihydro-1H-purine-6,8-dione] | ≤ 10% | > 50 µM
59% | 269 µM | CCCn1c(=O)n([C@@H]2O[C@H]([C@@H](O)CC)[C@H](F)[C@H]2O)c2nc(N)[nH]c(=O)c21 [Compound 26, 2-Amino-9-((2R,3S,4R,5R)-4-fluoro-3-hydroxy-5-((S)-1-hydroxypropyl)tetrahydrofuran-2-yl)-7-propyl-7,9-dihydro-1H-purine-6,8-dione] | 304% | ≤ 1.6 µM
61% | 339 µM | CC[C@H](O)[C@H]1O[C@@H](n2c(=O)n(CCC(F)(F)F)c3c(=O)[nH]c(N)nc32)[C@H](O)[C@H]1F [Compound 27, 2-Amino-9-((2R,3S,4R,5R)-4-fluoro-3-hydroxy-5-((S)-1-hydroxypropyl)tetrahydrofuran-2-yl)-7-(3,3,3-trifluoropropyl)-7,9-dihydro-1H-purine-6,8-dione] | 209% | ≤ 1.6 µM
58% | 182 µM | C#CCn1c(=O)n([C@@H]2O[C@H]([C@H](C)O)C[C@H]2O)c2nc(N)[nH]c(=O)c21 [Compound 9, 2-Amino-9-((2R,3R,5S)-3-hydroxy-5-((S)-1-hydroxyethyl)tetrahydrofuran-2-yl)-7-(prop-2-yn-1-yl)-7,9-dihydro-1H-purine-6,8-dione] | 191% | 6.2 µM
47% | 519 µM | Nc1nc2c(c(=O)[nH]1)n(CCC(F)(F)F)c(=O)n2[C@@H]1O[C@H]([C@@H](O)C(F)(F)F)C[C@H]1O [Compound 28, 2-Amino-9-((2R,3R,5S)-3-hydroxy-5-((R)-2,2,2-trifluoro-1-hydroxyethyl)tetrahydrofuran-2-yl)-7-(3,3,3-trifluoropropyl)-7,9-dihydro-1H-purine-6,8-dione] | 105% | 9.9 µM
< 5% |  | C#CCn1c(=O)n([C@@H]2O[C@H](C(=O)O)C[C@H]2O)c2nc(N)[nH]c(=O)c21 [Compound 40, (2S,4R,5R)-5-(2-Amino-6,8-dioxo-7-(prop-2-yn-1-yl)-1,6,7,8-tetrahydro-9H-purin-9-yl)-4-hydroxytetrahydrofuran-2-carboxylic acid] | ≤ 10% | > 50 µM
< 5% |  | C#CCn1c(=O)n([C@@H]2O[C@H]([C@@H](O)CNC)C[C@H]2O)c2nc(N)[nH]c(=O)c21 [Compound 16, 2-Amino-9-((2R,3R,5S)-3-hydroxy-5-((S)-1-hydroxy-2-(methylamino)ethyl)tetrahydrofuran-2-yl)-7-(prop-2-yn-1-yl)-7,9-dihydro-1H-purine-6,8-dione] | ≤ 10% | > 50 µM
92% | 119 µM | C#CCn1c(=O)n([C@@H]2O[C@H]([C@@H](O)CC)[C@H](F)[C@H]2O)c2nc(N)[nH]c(=O)c21 [Compound 13, 2-Amino-9-((2R,3S,4R,5R)-4-fluoro-3-hydroxy-5-((S)-1-hydroxypropyl)tetrahydrofuran-2-yl)-7-(prop-2-yn-1-yl)-7,9-dihydro-1H-purine-6,8-dione] | 353% | ≤ 3.3 µM
< 5% |  | C#CCn1c(=O)n([C@@H]2O[C@H](C(N)=O)C[C@H]2O)c2nc(N)[nH]c(=O)c21 [Compound 41, (2S,4R,5R)-5-(2-Amino-6,8-dioxo-7-(prop-2-yn-1-yl)-1,6,7,8-tetrahydro-9H-purin-9-yl)-4-hydroxytetrahydrofuran-2-carboxamide] | ≤ 10% | > 50 µM
< 5% |  | C#CCn1c(=O)n([C@@H]2O[C@H](C(C)(C)O)C[C@H]2O)c2nc(N)[nH]c(=O)c21 [Compound 18, 2-Amino-9-((2R,3R,5S)-3-hydroxy-5-(2-hydroxypropan-2-yl)tetrahydrofuran-2-yl)-7-(prop-2-yn-1-yl)-7,9-dihydro-1H-purine-6,8-dione] | ≤ 10% | > 50 µM
81% | 132 µM | CC[C@H](O)[C@@H]1C[C@@H](O)[C@H](n2c(=O)n(CC3CC3)c3c(=O)[nH]c(N)nc32)O1 [Compound 4, 2-Amino-7-(cyclopropylmethyl)-9-((2R,3R,5S)-3-hydroxy-5-((S)-1-hydroxypropyl)tetrahydrofuran-2-yl)-7,9-dihydro-1H-purine-6,8-dione] | 226% | 12.5 µM
78% | 210 µM | CCCCn1c(=O)n([C@@H]2O[C@H]([C@@H](O)C(F)(F)F)C[C@H]2O)c2nc(N)[nH]c(=O)c21 [Compound 31, 2-Amino-7-butyl-9-((2R,3R,5S)-3-hydroxy-5-((R)-2,2,2-trifluoro-1-hydroxyethyl)tetrahydrofuran-2-yl)-7,9-dihydro-1H-purine-6,8-dione] | 71% | 6.3 µM
